Key:
[1] = Quantification of Ru in tissues (bio-distribution); details: non-infected mice, i.v.
Procedure: Tricarbonyldichloro(methylthiogalactopyranoside) Ru(II) [Ru(CO)3Cl2(Gal-S-Me)], also referred to herein as Compound 1, was prepared by reacting CORM-2 with methylthiogalactopyranoside (Gal-S-Me) as described herein (see FIG. 2a and Materials and Methods section). The bio-distribution of Compound 1 in tissues was assessed by quantifying the levels of Ru and CO in the host by the method of Vreman et al., Anal Biochem (2005) 341:280-9. Liver, kidney, spleen, lung and brain tissues of non-infected mice (NI) were analyzed one hour after administration of Compound 1 and the control molecule, Compound 2 (FIG. 2b). […] The spleen is an organ that plays a crucial role in erythrophagocytosis, process important for red blood cell turnover, and recycling of iron. Erythrocytes are hydrolyzed by splenic macrophages, where the degradation of hemoglobin occurs, haem is release, and is catabolized by heme oxygenase-1 into biliverdin, carbon monoxide and ferrous iron (Fe^2+).
The tissue samples were weighed and dried at 80° C. overnight followed by 2 or more hours at 120° C. […] The Ru content was analyzed by an inductively coupled plasma-atomic emission spectrometer (ICP-AES) (model Ultima-Horiba Jobin Yvon, Longjumeau, France) using an external Ru standard method.

P. berghei ANKA GFP [2] = type: in vivo, C57BL/6 mice; details: for hyperparasitemia in protected mice (infected red blood cells): 3 weeks after infection; for effect on parasitemia: treated twice daily days 2-3, observed from about day 5 to day 8 of infection
Procedure: It has previously been shown that administration of CO by inhalation protects P. berghei ANKA infected C57BL/6 mice from developing ECM (see, e.g., Pamplona et al. Nat Med (2007) 13:703-710). The inventors questioned whether CO-RMs could mimic the protection conferred by CO inhalation in P. berghei ANKA infection. To this end, a known ruthenium CORM, Ru(CO)3Cl2, also referred to herein as CORM-2, was tested on different schedules of treatment and doses in P. berghei ANKA infected C57BL/6 mice (data not shown).
Red blood cells infected with green fluorescent protein (GFP)-transgenic P. berghei ANKA and P. berghei ANKA was used to infect mice (see, e.g., Franke-Fayard et al. Mol Biochem Parasitol (2004) 137:23-33). Cryopreserved parasites were passed once through C57BL/6 or DBA-2 mice before being used to infect experimental animals. C57BL/6 or DBA-2, 6- to 8-wk-old mice (sex matched in each experiment) were infected by intra-peritoneal (i.p.) injection of 10^6 infected RBCs. The infected mice were monitored daily for clinical symptoms of experimental cerebral malaria (ECM) including hemi- or paraplegia, head deviation, tendency to roll over on stimulation, ataxia and convulsions, or ALI, including dyspnea. Mice showing severe signs of ECM at day 5, 6 or 7 post-infection (p.i.) and ALI between days 7 and 9 were sacrificed. Parasitemia was assessed by flow cytometry for mice infected with GFP-expressing P. berghei ANKA, using tail blood, as previously described (see, e.g., Pamplona et al., Nat Med (2007) 13:703-710). Mean parasitemia is expressed as percentage of infected red blood cells. For mice infected with non-GFP P. berghei parasitemia was assessed daily by microscopic counting of Giemsa-stained thin blood smears. Mean parasitemia is expressed as percentage of infected red blood cells. Survival is expressed as percentage.
(§1) In order to evaluate the clinical presentation of experimental cerebral malaria, a classification was used in clinical stages from 0 to 4 (see, e.g., Bienvenu et al., Acta Trop (2008) 106:104-8; Franklin et al., Proc Natl Acad Sci USA (2011) 108:3689-94). Briefly, stage 0 indicates no detectable clinical symptoms, stage 1, ruffled fur; stage 2, ruffled fur and unbalancing; stage 3, limb paralysis and respiratory distress and stage 4, convulsions, coma or death. The mice were clinically classified before and after the treatment to evaluate the clinical recovery.
(§2) CORM-2 (Sigma-Aldrich) and Compound 2 were solubilized using 10% dimethyl sulfoxide (DMSO; Sigma-Aldrich) in PBS. CORM-3 and Compound 1 were solubilized in PBS (lx). CORM-2 solution (20 mg/kg of body weight) was administered intravenously (i.v.) according to the chosen schedules. […] As vehicle control, we used a solution of 10% DMSO in PBS administered i.v. The concentrations of CORM-2 used in the present study were based on previous reports (see, e.g., Chen et al. Am. J. Pathol. (2009) 175:422-429; Sun et al., World. J. Gastroenterol. (2008) 14:547-553). Artesunate is presented as a powder of artesunic acid. Artesunate (AS) solution was prepared by dissolving 60 mg of anhydrous artesunic acid in 1 ml of sodium bicarbonate (5%) to form sodium artesunate and then diluted in 5 ml of NaCl (0.9%). An AS solution (i.p.) was administered at 40 mg/Kg/day, as described previously (see, e.g., Bienvenu, Acta Trop (2008) 106:104-108). The AS treatment was started when the infected non-treated mice presented the clinical stage 1 for experimental cerebral malaria.

Hen Egg White Lysozyme C = biological target: T1, Hen Egg White Lysozyme C (Gallus gallus, UniProt P00698); experiment: Hen egg white lysozyme (HEWL) assay, reactivity with proteins by LC-MS; type: binding; details: 10 equiv in H2O, room temperature, 10 minutes and 1 hour
T1 construct: one corresponding to the mass of native lysozyme (14305=calculated mass); from tissue; host or cells: hen egg white
Source text: The hen egg white lysozyme (HEWL) assay was used to assess the reactivity of Compound 1 in the presence of proteins (see, e.g., Santos-Silva, T. et al. J Am Chem Soc (2011) 133, 1192-1195). This paper describes the interactions of CORM-3 with plasma proteins. CORM-3 reacts rapidily with proteins, losing chloride ion, glycinate, and one CO ligand. […] It was observed that CORM-3 reacts faster and has a much weaker efficacy than Compound 1 in this ECM treatment.
Liquid chromatography-mass spectrometry (LC-MS) was performed on a Micromass Quattro API instrument (ESI-TOF-MS) coupled to a Waters Alliance 2795 HPLC using a MassPREP On-Line Desalting Cartridge. […]
Hen Egg White Lysozyme C (PDB code 3b61; UniProtKB/Swiss-Prot code P00698). […] Quantitative determination of lysozyme-ligand binding in the solution and gas phases by electrospray ionisation mass spectrometry follows Veros et al., Rapid Commun. […] A 50 μL aliquot was analyzed by LC-MS (calculated average isotopic mass of the egg white lysozyme=14305.1).
Santos-Silva and co-workers previously describe CORM-3's reactivity towards proteins and formation of a Ru(II) dicarbonyl-lysozyme complex (see, e.g., Santos-Silva et al., J. Am. Chem. Soc. (2011) 133:1192-1195). […] 50 μL aliquots were collected and analyzed by LC-MS over the reaction time (10 minutes and 1 hour). […]

[3] = cited from earlier work
P. berghei ANKA GFP [4] = experiment: Adjunctive/adjuvant therapy with artesunate after onset of ECM; type: in vivo, C57BL/6 mice; details: for parasitemia: AS alone 40 mg/Kg/day i.p. d5-d6
Procedure: Thus, the inventors decided to test Compound 1 as an adjunctive and adjuvant therapy during the acute phase of ECM. […] Therefore, the inventors assessed the combination of Compound 1 and AS on parasite clearance and clinical recovery from ECM. Two AS and Compound 1 combinations were tested: (i) Adjunctive therapy: AS and Compound 1 were administered concomitantly for 2 days after the onset of CM followed by a 3-day treatment with Compound 1 alone, or (ii) Adjuvant therapy: AS was administered on the first 2 days after CM onset followed by Compound 1 administration for 3 more days.
as §1, §2

[5] = Brain histology (hematoxylin and eosin) in ECM; type: in vivo, C57BL/6 mice; details: P. berghei ANKA-infected mice
Procedure: For evaluation of histological features, mice were deeply anesthetized until cessation of breathing when infected control mice presented signs of ECM or ALI. The livers, lungs, and brains were removed and fixed in 10% buffered formalin for 24-72 h. Four-micron sections were cut from paraffin-embedded tissues and stained with hematoxylin and eosin according to standard procedures. Histological analyses were performed on a Leica microscope DM 2500 (Leica Microsystems).

P. berghei ANKA [6] = experiment: Malaria-associated acute lung injury (M-AALI) model; type: in vivo, DBA/2 mice; details: i.v. twice daily
Source text: The M-AALI model, based on the infection of DBA-2 mice with P. berghei ANKA, is characterized by dyspnea, airway obstruction, hypoxemia, pulmonary exudate and elevated VEGF levels in plasma, followed by death between days 7 and 12 after infection.
Red blood cells infected with green fluorescent protein (GFP)-transgenic P. berghei ANKA and P. berghei ANKA was used to infect mice (see, e.g., Franke-Fayard et al. Mol Biochem Parasitol (2004) 137:23-33). Cryopreserved parasites were passed once through C57BL/6 or DBA-2 mice before being used to infect experimental animals. […] The infected mice were monitored daily for clinical symptoms of experimental cerebral malaria (ECM) including hemi- or paraplegia, head deviation, tendency to roll over on stimulation, ataxia and convulsions, or ALI, including dyspnea. […] Parasitemia was assessed by flow cytometry for mice infected with GFP-expressing P. berghei ANKA, using tail blood, as previously described (see, e.g., Pamplona et al., Nat Med (2007) 13:703-710). Mean parasitemia is expressed as percentage of infected red blood cells. For mice infected with non-GFP P. berghei parasitemia was assessed daily by microscopic counting of Giemsa-stained thin blood smears. Mean parasitemia is expressed as percentage of infected red blood cells. Survival is expressed as percentage. […]

P. berghei ANKA [7] = experiment: In vitro replication of P. berghei ANKA; type: cell-based, Plasmodium berghei; details: 24 h
Procedure: (§3) The data led the inventors to wonder whether Compound 1 could have a direct anti-parasitic effect on P. berghei ANKA and P. falciparum parasites. To this end, the effect of Compound 1 and the anti-malarial chloroquine (CQ) was monitored on the in vitro replication of P. falciparum 3D7 isolate and P. berghei ANKA for 48 h and 24 h, respectively.

P. falciparum 3D7 = experiment: In vitro replication of P. falciparum 3D7; type: cell-based, Plasmodium falciparum; details: 48 h
Procedure: as §3

T1 sequence (P00698 19-147): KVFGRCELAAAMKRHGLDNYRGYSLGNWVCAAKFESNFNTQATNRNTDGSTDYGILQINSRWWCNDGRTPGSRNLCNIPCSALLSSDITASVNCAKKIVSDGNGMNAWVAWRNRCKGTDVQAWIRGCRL

Tricarbonyldichloro(methylthiogalactopyranoside) Ru(II) [Compound 1]
amount of Ru retained in the liver after the last injection, of the Ru administered in all doses [1]: about 13.7±0.6%

NCC(=O)O.[C-]#[O+].[C-]#[O+].[C-]#[O+].[Cl][Ru] [CORM-3, fac-Ru(CO)3C1(glycinate)]
hyperparasitemia in protected mice (infected red blood cells) (P. berghei ANKA GFP [2]): > 50 % infected red blood cells | mice protected from ECM (P. berghei ANKA GFP [2]; i.v. twice daily between days 2 and 3 after infection, equimolar to CORM-2 20 mg/kg): 50% | effect on parasitemia (P. berghei ANKA GFP [2]): statistically significant delay in parasitemia | reactivity with HEWL (adduct formation) (Hen Egg White Lysozyme C): reacts faster | COHb levels in blood after in vivo administration [3]: do not elevate the carboxyhemoglobin (COHb) levels

[C-]#[O+].[C-]#[O+].[C-]#[O+].[C-]#[O+].[C-]#[O+].[C-]#[O+].[Cl][Ru][Cl].[Cl][Ru][Cl] [CORM-2, tricarbonyldichlororuthenium(II) dimer]
hyperparasitemia in protected mice (infected red blood cells) (P. berghei ANKA GFP [2]): > 30 % infected red blood cells | death or symptoms of ECM (P. berghei ANKA GFP [2]; CORM-2 20 mg/kg i.v. twice daily between days 2 and 3 after infection): prevented death or symptoms of ECM in all infected C57BL/6 mice | effect on parasitemia (P. berghei ANKA GFP [2]): statistically significant delay in parasitemia | COHb levels in blood after in vivo administration [3]: do not elevate the carboxyhemoglobin (COHb) levels

C[C@H]1[C@H](OC(=O)CCC(=O)O)O[C@@H]2O[C@@]3(C)CC[C@H]4[C@H](C)CC[C@@H]1[C@@]24OO3 [AS, Artesunate]
parasitemia (P. berghei ANKA GFP [4]; day 5 post-infection): 6.8±0.3% | parasitemia (P. berghei ANKA GFP [4]; day 9 post-infection): 0.59±0.06% | mice that died with ECM (P. berghei ANKA GFP [4]; AS alone d5-d6): 82% | survival (P. berghei ANKA GFP [4]; AS alone d5-d6): 18%

CS(C)=O.CS(C)=O.CS(C)=O.CS(C)=O.[Cl][Ru][Cl] [Compound 2, Tetrakis(dimethylsulfoxide)dichlororuthenium(II), reference compound]
neuropathologic features in brain sections [5]: evidence of microvascular congestion with pRBC and leukocytes and hemorrhagic foci | mice that died displaying M-AALI symptoms (P. berghei ANKA [6]): 67% | inhibition of in vitro growth (P. berghei ANKA [7]): absence of inhibitory effect | inhibition of in vitro growth (P. falciparum 3D7): absence of inhibitory effect
